“Also recorded” adds a separate entry of the source.
What was measured:
αSMA = test: Cellular response to individual exogenous ASA-triggered lipid mediators (αSMA western blot); type: cell-based, human; settings: 48 hrs
Experimental: Cells were lysed in lysis buffer (PhosphoSafe Extraction Reagent, Novagen) containing a protease inhibitor cocktail (P2714, Sigma-Aldrich). Crude protein lysate was quantified using a Pierce BCA protein assay kit (ThermoFisher, Mississauga, ON) and 10 ug from each sample was resolved using a Novex WedgeWell 4-20% tris-glycine gel (Invitrogen). Using an iBlot Gel Transfer Device (IB1001, Invitrogen), the separated protein was transferred to a nitrocellulose membrane (1B301001, iBlot Transfer Stack, Invitrogen) which was then blocked with 5% (w/v) bovine serum albumin (Sigma-Aldrich) in Tris buffered saline (TBST) for 1 hour at room temperature. The membranes were incubated overnight at 4° C. with primary antibody diluted in TBST containing 5% BSA (w/vol). Primary antibodies used were as follows: collagen 1 (ab138492, Abcam), αSMA (ab5694, Abcam), MMP9 (ab38898, Abcam), PPARγ (sc-7273, SantaCruz Biotechnology), SMAD2/3 (ab63672, Abcam), pSMAD2/3 (ab63399, Abcam) and GAPDH (sc-47724, Santa Cruz Biotechnology, Inc.). After incubation with primary antibodies, the blots were washed and hybridized with 1:3000 (v/v) dilutions of the appropriate goat anti-rabbit or anti-mouse IgG conjugated with horseradish peroxidase ([…], respectively, both from Bio-Rad Laboratories, Inc.). Visualization was accomplished by applying WesternBright Quantum chemiluminescent reagent (Advansta, Inc.), with GAPDH used as a protein loading control. Imaging and relative densiometric quantification was accomplished using a ChemiDoc MP System (Bio-Rad Laboratories, Inc.) connected to Image Lab (Version 6, Bio-Rad Laboratories, Inc.).
From the lipid mediator secretion assays, we see that exposure to ASA or APHS±a PLA2-a results in the generation of significant quantities of pro-resolving products 5-HETE, 11-HETE, 15-HETE and/or 17-OHDHA. The aim of this experiment was to assess the effects (both individually and in combination) of these lipid mediators at mitigating the induction of αSMA by aqueous humor growth factors. To this end, multiple primary HTCF cell lines were cultured in DMEM w/10% FBS in 6-well culture plates, incubated at 37 C and 5% CO2, until 80% confluent. The culture media was removed, wells washed with PBS, and then fresh DMEM w/0% FBS was added. After 24 hrs of serum starvation, one of 14 experimental treatments were applied for 48 hrs: 1) vehicle control (DMEM w/0% FBS), and 2) AHGFs (DMEM w/0% FBS and 2 ng/ml each of TGFB1, TGFB2, VEGF, CCN2), and 3-5) AHGFs/5-HETE (DMEM w/0% FBS, 2 ng/ml each of TGFB1, TGFB2, VEGF, CCN2, and 10, 100, or 1000 nM of 5-hydroxyeicosatetraenoic acid), and 6-8) AHGFs/11-HETE (DMEM w/0% FBS, 2 ng/ml each of TGFB1, TGFB2, VEGF, CCN2, and 10, 100, or 1000 nM of 11-hydroxyeicosatetraenoic acid), and 9-11) AHGFs/15-HETE (DMEM w/0% FBS, 2 ng/ml each of TGFB1, TGFB2, VEGF, CCN2, and 10, 100, or 1000 nM of 15-hydroxyeicosatetraenoic acid), and 12-14) AHGFs/17-OHDHA (DMEM w/0% FBS, 2 ng/ml each of TGFB1, TGFB2, VEGF, CCN2, and 10, 100, or 1000 nM of 17-hydroxy-docosahexaenoic acid). After 48 hrs exposure cellular protein lysate was collected and assessed by western blot with primary antibodies for αSMA and GAPDH, as described previously.

HTCFs [1] = test: Lipid Mediator Secretion Assay II (ASA or APHS with and without gentamicin, LC-MS/MS); type: cell-based, human; settings: inflammatory cytokine induced HTCFs, gentamicin 250 or 500 μg/ml
Experimental: To this end, as before, multiple primary HTCF cell lines were cultured in DMEM w/10% FBS in 6-well culture plates, incubated at 37° C. and 5% CO2, until 90% confluent. The culture media was removed, wells washed with PBS, and then fresh DMEM w/0% FBS was added. After 24 hrs of serum starvation, fresh DMEM w/0% FBS was added, this time containing a physiologically relevant inflammation/wound healing induction mixture (1 ng/ml each of: IL-1b, TNFa, IFNγ, TGFb). After 12 hrs incubation, the induction media was removed, the wells were washed with PBS and fresh DMEM w/0% FBS was added containing one of ten experimental treatments for an incubation period of 48 hrs: 1) non-induced control (NIC: received DMEM w/0% FBS instead of the induction media), and 2) CytoM1+TGFB1 (DMEM w/0% FBS and 1 ng/ml each of: IL-1b, TNFa, IFNγ, TGFb), and 3) CytoM1/TGFB1/Gent250 (DMEM w/0% FBS, 1 ng/ml each of TGFB1, TGFB2, VEGF, CCN2 and 250 μg/ml gentamicin), and 4) CytoM1/TGFB1/Gent500 (DMEM w/0% FBS, 1 ng/ml each of TGFB1, TGFB2, VEGF, CCN2 and 500 μg/ml gentamicin), and 5) CytoM1/TGFB1/ASA500 (DMEM w/0% FBS, 1 ng/ml each of TGFB1, TGFB2, VEGF, CCN2, and 500 μg/ml ASA), and 6) CytoM1/TGFB1/ASA500/Gent250 (DMEM w/0% FBS, 1 ng/ml each of TGFB1, TGFB2, VEGF, CCN2, 500 μg/ml ASA and 250 μg/ml gentamicin), and 7) CytoM1/TGFB1/ASA1000 (DMEM w/0% FBS, 1 ng/ml each of TGFB1, TGFB2, VEGF, CCN2 and 1000 μg/ml ASA), and 8) CytoM1/TGFB1/ASA1000/Gent500 (DMEM w/0% FBS, 1 ng/ml each of TGFB1, TGFB2, VEGF, CCN2, 1000 μg/ml ASA, and 500 μg/ml gentamicin), and 9) CytoM1/TGFB1/APHS12 (DMEM w/0% FBS, 1 ng/ml each of TGFB1, TGFB2, VEGF, CCN2 and 12 μg/ml o-(acetoxyphenyl)hept-2-ynyl sulfide (APHS), and 10) CytoM1/TGFB1/APHS12/Gent250 (DMEM w/0% FBS, 1 ng/ml each of TGFB1, TGFB2, VEGF, CCN2, 12 μg/ml o-(acetoxyphenyl)hept-2-ynyl sulfide (APHS) and 250 μg/ml gentamicin). At 6, 12, 24 and 48 hrs after addition of the experimental treatments, 250 ul of supernatant was removed from each well, replaced with 250 ul of fresh DMEM w/0% FBS, and stored at −80° C. for subsequent LC-MS/MS analysis. After 48 hrs, the wells were washed with ice cold PBS three times and total cellular protein from the HTCF monolayer was collected for quantification and subsequent western blot analyses. The absolute quantity of protein within each culture well's HTCF monolayer was used as a means to standardize the relative secretion of lipid mediators by HTCFs into the culture well's supernatant.
This is a well-established method to determine the relative activity of cyclooxygenase, acetyl-COX2 and lipoxygenase biosynthetic pathways. In brief, the ratios of the integrated areas of the chromatographic peaks corresponding to each analyte and the integrated areas of the peaks corresponding to each analyte's internal standard (with known absolute quantity) are used to determine the relative quantity of each analyte in a given sample. After supernatant sample collection, 250 ul of methanol containing 100 μg of each deuterated internal standard was added. Samples were then vigorously vortexed and centrifuged at 10,000 g for 10 min before loading onto solid-phase extraction cartridges (Strata-X 33 um Polymeric Reversed Phase, 10 mg, Phenomenex 8B-S100-AAK), that were previously activated with 2 ml methanol and rinsed with 2 ml water. […] After washing with 5 ml water, extracts were eluted with 1 ml methanol. Solvent was then evaporated under vacuum in a SpeedVac centrifuge, and the extract was resuspended in 100 ul acetonitrile/water 60:40 (v/v). An aliquot of 20 ul was injected into the LC-MS/MS system for analysis. […] A Sciex Triple Quad 6500+ mass spectrometer with multiple reaction monitoring was used in negative ion mode. The chromatographic profile of the ion count for each m/z transition was monitored, and the area under the peaks (ion intensity vs elution time) was integrated using commercial software (MultiQuant, Sciex).

HTCFs [2] = test: Collagen Contraction Assay II (dose dependence); type: cell-based, human; settings: gentamicin alone, 100-1000 μg/ml, four days (FIG. 8A)
Experimental: (§1) The cell-collagen solution was pipetted gently to ensure homogenous distribution of HTCFs while avoiding the production of air bubbles, then 500 ul were pipetted into each well of a 24-well tray. Collagen constructs were allowed to polymerize at 37 C for 45 minutes before adding low serum culture media containing DMEM, 2% Fetal Bovine Serum (FBS), 1% penicillin/streptomycin (P/S).
Tension was allowed to build up within the tethered matrix at 37 C and 5% CO2 for 72 hours before a sterile spatula was used to detach each collagen construct from the edges of the culture well. Plates were then immediately scanned on a flat bed laser scanner once per 24 hours for a total of 4 days. The surface area of each collagen construct was measured using ImageJ (NIH) and standardized against the baseline surface area measurement to express changes in area as a percentage of original surface area.
The gentamicin concentrations assessed were delivered in a solution contained DMEM with 2% FBS, 1% penicillin/streptomycin and either 100, 250, 500, 750 or 100 μg/ml gentamicin (Sigma-Aldrich, CAT. NO: G1397). The ASA concentrations assessed were delivered in a solution of DMEM with 2% FBS, 1% penicillin/streptomycin and either 500, 1000 or 1500 μg/ml ASA (Sigma-Aldrich, CAT. NO: A5376). […]

HTCFs [3] = test: Collagen Contraction Assay IV (AHGF induced, ASA and gentamicin vs mitomycin C); type: cell-based, human; settings: ASA 1500 μg/ml and/or gentamicin 750 μg/ml; comparator mitomycin C 0.2 mg/ml for 4 minutes
Experimental: as §1
Tension was allowed to build up within the tethered matrix at 37 C and 5% CO2 for 72 hours before a sterile spatula was used to detach each collagen construct from the edges of the culture well. Plates were then immediately scanned on a flat bed laser scanner and then periodically for a total of 4 days. The surface area of each collagen construct was measured using ImageJ (NIH) and standardized against the baseline surface area measurement to express changes in area as a percentage of original surface area.
In this modification of the assay, AHGFs are added to all culture media the collagen constructs are exposed to—from casting of the collagen constructs to the conclusion of contraction. The experimental treatment solutions—all also containing AHGFs—were added 30 minutes prior to detaching the collagen constructs from the culture wells and remained until experimental conclusion. […] DMEM w/2% FBS was added for the remainder of the experiment).

[4] = tested on: human Tenon's capsule fibroblasts (HTCFs); test: Collagen Contraction Assay I (delayed release fibroblast populated collagen lattice); type: cell-based; settings: gentamicin 1000 μg/ml and/or ASA 2000 μg/ml, 15 minutes twice daily, four day assay, vs vehicle control
Experimental: The delayed release fibroblast populated collagen lattice model was used to assess inhibition of gel contraction [58] by ASA and gentamicin. […] Cell free collagen lattices were prepared identically, however to isolate the effects of HTCFs alone on collagen, constructs without HTCFs were cast as a negative control. The cell-collagen solution was pipetted gently to ensure homogenous distribution of HTCFs while avoiding the production of air bubbles, then 500 ul were pipetted into each well of a 24-well tray. Collagen constructs were allowed to polymerize at 37 C for 45 minutes before adding low serum culture media containing DMEM, 2% Fetal Bovine Serum (FBS), 1% penicillin/streptomycin (P/S).
Tension was allowed to build up within the tethered matrix at 37 C and 5% CO2 for 72 hours before a sterile spatula was used to detach each collagen construct from the edges of the culture well. Plates were then immediately scanned on a flat bed laser scanner and then once per hour for the first 12 hours, then daily for a total of 4 days. The surface area of each collagen construct was measured using ImageJ (NIH) and standardized against the baseline surface area measurement to express changes in area as a percentage of original surface area.
Vehicle control treatment solution comprised of DMEM with 2% FBS and 1% penicillin/streptomycin. The gentamicin treatment solution contained DMEM with 2% FBS, 1% penicillin/streptomycin and 1000 μg/ml gentamicin (w/vol) (Sigma-Aldrich, CAT. NO: G1397). The ASA treatment solution contained DMEM with 2% FBS, 1% penicillin/streptomycin and 2000 μg/ml ASA (w/vol) (Sigma-Aldrich, CAT. NO: A5376). The gentamicin-ASA combination treatment solution (Gent+ASA) contained DMEM with 2% FBS, 1% penicillin/streptomycin, 1000 μg/ml gentamicin (w/vol.) and 2000 μg/ml ASA (w/vo).
Culture media was removed from collagen constructs twice daily and replaced with one of the four treatment solutions for a duration of 15 minutes. […]

CCCCC/C=C\C/C=C\C/C=C\C=C\[C@@H](O)CCCC(=O)O [5-HETE, 5-hydroxyeicosatetraenoic acid]
AHGF-induced expression of αSMA (αSMA; lipid mediator at 100 nM): significantly reduced
AHGF-induced expression of αSMA (αSMA; lipid mediator at 1000 nM): significantly reduced

CCCCC/C=C\C=C\C(O)C/C=C\C/C=C\CCCC(=O)O (stereo not shown) [11-HETE, 11-hydroxyeicosatetraenoic acid]
AHGF-induced αSMA expression (αSMA; lipid mediator at 10, 100, or 1000 nM): did not significantly affect AHGF-induced αSMA expression

CCCCC[C@H](O)/C=C/C=C\C/C=C\C/C=C\CCCC(=O)O [15-HETE, 15-hydroxyeicosatetraenoic acid]
AHGF-induced expression of αSMA (αSMA; lipid mediator at 100 nM): significantly reduced

CC/C=C\CC(O)/C=C/C=C\C/C=C\C/C=C\C/C=C\CCC(=O)O (stereo not shown) [17-OHDHA, 17-hydroxy-docosahexaenoic acid]
AHGF-induced expression of αSMA (αSMA; lipid mediator at 100 nM): significantly reduced
AHGF-induced expression of αSMA (αSMA; lipid mediator at 1000 nM): significantly reduced

gentamicin
secretion of PUFA precursors: AA, EPA and DHA (HTCFs [1]): significantly increase the secretion of PUFA precursors
HTCF-mediated collagen contraction (HTCFs [2]): no significant treatment effects found; also recorded: no significant effect on HTCF-mediated collagen contraction
AHGF induced, HTCF-mediated collagen contraction (HTCFs [3]): no statistically significant effect on collagen contraction
HTCF mediated collagen contraction [4]: did not affect collagen contraction until the second day of the four day assay

Reference: patent US20210196731A1, “COMPOSITIONS AND METHODS FOR TREATING OCULAR INFLAMMATION AND OCULAR SCARRING” (priority 2018, published 2021)
